Data as given in US12384770B2, “Heterocyclic compound” (Takeda Pharmaceutical Company Limited, priority 2019, dated 2025).

target: T1, HDAC6 enzyme (Homo sapiens, UniProt Q9UBN7); experiment: HDAC6 enzyme inhibitory assay (HDAC-Glo I/II Assay kit); assay type: biochemical; details: wells without enzyme = 100% inhibition
T1 construct: HDAC6 enzyme prepared by transducing full length HDAC6 gene into Sf-9 insect cells; GST; purchased SignalChem; host or cells: Sf-9 insect cells
T1 sequence (Q9UBN7 1-1215): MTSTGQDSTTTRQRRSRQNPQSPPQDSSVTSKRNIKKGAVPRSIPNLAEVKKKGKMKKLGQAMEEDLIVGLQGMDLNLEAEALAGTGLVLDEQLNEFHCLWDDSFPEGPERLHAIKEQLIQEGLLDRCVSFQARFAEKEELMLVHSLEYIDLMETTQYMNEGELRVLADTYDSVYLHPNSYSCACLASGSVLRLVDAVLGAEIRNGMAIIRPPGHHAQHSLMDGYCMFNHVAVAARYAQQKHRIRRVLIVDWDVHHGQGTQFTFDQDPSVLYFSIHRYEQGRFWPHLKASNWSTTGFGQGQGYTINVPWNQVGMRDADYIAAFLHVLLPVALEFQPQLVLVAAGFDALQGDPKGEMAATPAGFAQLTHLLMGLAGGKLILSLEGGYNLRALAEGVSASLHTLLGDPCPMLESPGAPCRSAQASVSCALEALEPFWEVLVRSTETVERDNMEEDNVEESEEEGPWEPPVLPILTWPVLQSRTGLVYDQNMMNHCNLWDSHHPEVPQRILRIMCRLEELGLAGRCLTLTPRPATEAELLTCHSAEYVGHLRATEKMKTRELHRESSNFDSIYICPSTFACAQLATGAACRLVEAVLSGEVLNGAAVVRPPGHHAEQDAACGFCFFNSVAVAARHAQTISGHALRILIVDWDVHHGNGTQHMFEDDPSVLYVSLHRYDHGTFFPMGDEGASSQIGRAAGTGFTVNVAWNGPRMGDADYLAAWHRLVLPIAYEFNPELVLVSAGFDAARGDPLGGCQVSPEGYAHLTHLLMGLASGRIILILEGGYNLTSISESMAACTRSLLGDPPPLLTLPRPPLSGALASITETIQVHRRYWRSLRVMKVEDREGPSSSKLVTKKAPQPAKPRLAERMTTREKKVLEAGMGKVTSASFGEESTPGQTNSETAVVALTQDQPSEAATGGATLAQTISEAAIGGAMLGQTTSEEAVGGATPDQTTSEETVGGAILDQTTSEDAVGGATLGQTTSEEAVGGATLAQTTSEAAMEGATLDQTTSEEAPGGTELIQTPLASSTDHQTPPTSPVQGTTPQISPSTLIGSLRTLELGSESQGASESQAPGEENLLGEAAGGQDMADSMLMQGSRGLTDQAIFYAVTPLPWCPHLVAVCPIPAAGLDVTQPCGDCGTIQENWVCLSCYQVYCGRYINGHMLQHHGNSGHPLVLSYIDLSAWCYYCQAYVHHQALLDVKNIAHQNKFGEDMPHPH
Method: Experimental Example 1 HDAC6 Enzyme Inhibitory Assay
HDAC6 enzyme prepared by transducing full length HDAC6 gene into Sf-9 insect cells and purifying by GST affinity column were purchased from SignalChem. Using this enzyme, HDAC6 enzyme inhibitory activity of the compound of the present invention were evaluated. Enzymes were used after preserved at −70° C. HDAC6 enzyme inhibitory activity of the compound of the present invention was measured using HDAC-Glo™ I/II Assay kit (Promega) according to the following experimental method. The test compound diluted with assay buffer (24 mM Tris-HCl (pH 7.5), 1 mM MgCl2, 0.35 mM KCl, 135 mM NaCl, 0.6 mM Glutathione, 0.01% Tween-20) was added to a 384-well plate by each 2 μL. Then, HDAC6 enzyme solution diluted with assay buffer was added thereto by each 4 μL, and the plate was incubated at room temperature for 60 min. After incubated, HDAC substrate-Developer solution prepared according to Promega protocol attached to the assay kit was added to the 384-well plate by each 2 μL, and the enzyme reaction was started. After reacting at room temperature for 20 min, luminescence level was measured using plate reader Envision (PerkinElmer). The inhibitory activity of each compound of Example was calculated as a relative activity value when luminescence level in wells without enzyme is considered as 100% inhibition.

Compound | HDAC6 inhibitory rate (%) (10 μM)
O=C1c2cc(-c3nnc(C(F)F)o3)ccc2CN1[C@H](c1cccc(F)n1)[C@@H](O)c1cccc(F)c1 (single isomer, unassigned) [Example 90, 6-[5-(difluoromethyl)-1,3,4-oxadiazol-2-yl]-2-[(1R*,2S*)-2-(3-fluorophenyl)-1-(6-fluoropyridin-2-yl)-2-hydroxyethyl]-2,3-dihydro-1H-isoindol-1-one] | 100
O=C1c2cc(-c3nnc(C(F)F)o3)ccc2CN1[C@H](c1cnccn1)[C@@H](O)c1cccc(Cl)c1 (single isomer, unassigned) [Example 92, 2-[(1R*,2S*)-2-(3-chlorophenyl)-2-hydroxy-1-(pyrazin-2-yl)ethyl]-6-[5-(difluoromethyl)-1,3,4-oxadiazol-2-yl]-2,3-dihydro-1H-isoindol-1-one] | 100

same assay, conditions: wells without enzyme = 100% inhibition, 10 µM

Compound | HDAC6 inhibitory rate (%) (10 μM)
O=C1c2cc(-c3nnc(C(F)F)o3)ccc2CN1[C@H](c1ccc(F)cn1)[C@@H](O)c1ccccn1 (single isomer, unassigned) [Example 60] | 99
O=C1c2cc(-c3nnc(C(F)F)o3)ccc2CN1[C@H](C1CCOCC1)[C@@H](O)c1ccc(F)c(F)c1 (single isomer, unassigned) [Example 88, 6-[5-(difluoromethyl)-1,3,4-oxadiazol-2-yl]-2-[(1R*,2S*)-2-(3,4-difluorophenyl)-2-hydroxy-1-(oxan-4-yl)ethyl]-2,3-dihydro-1H-isoindol-1-one] | 99

same assay, conditions: wells without enzyme = 100% inhibition, read-out: HDAC6 inhibitory rate (%) (10 μM)

Compound | inhibition at 10 µM [%]
O=C1c2cc(-c3nnc(C(F)F)o3)ccc2CN1[C@H](c1ccccc1)[C@H](O)c1ccccc1F (racemic) [Example 139, 6-[5-(difluoromethyl)-1,3,4-oxadiazol-2-yl]-2-[(1RS,2RS)-2-(2-fluorophenyl)-2-hydroxy-1-phenylethyl]-2,3-dihydro-1H-isoindol-1-one] | 100
O=C1c2cc(-c3nnc(C(F)F)o3)ccc2CN1[C@H](C1CC1)[C@@H](O)c1ccccn1 [Example 38, 2-[(1R,2R)-1-cyclopropyl-2-hydroxy-2-(pyridin-2-yl)ethyl]-6-[5-(difluoromethyl)-1,3,4-oxadiazol-2-yl]-2,3-dihydro-1H-isoindol-1-one] | 100
O=C1c2cc(-c3nnc(C(F)F)o3)ccc2CN1[C@H](c1ccc(C(F)(F)F)nc1)[C@@H](O)c1ccc(F)cc1 (racemic) [Example 18, 6-[5-(difluoromethyl)-1,3,4-oxadiazol-2-yl]-2-{(1RS,2SR)-2-(4-fluorophenyl)-2-hydroxy-1-[6-(trifluoromethyl)pyridin-3-yl]ethyl}-2,3-dihydro-1H-isoindol-1-one] | 99
O=C1c2cc(-c3nnc(C(F)F)o3)ccc2CN1[C@H](c1ccc(F)cc1)[C@@H](O)c1ccc(F)nc1 (single isomer, unassigned) [Example 131, 6-[5-(difluoromethyl)-1,3,4-oxadiazol-2-yl]-2-[(1R*,2S*)-1-(4-fluorophenyl)-2-(6-fluoropyridin-3-yl)-2-hydroxyethyl]-2,3-dihydro-1H-isoindol-1-one] | 99
O=C1c2cc(-c3nnc(C(F)F)o3)ccc2CN1[C@@H](c1ccccc1)[C@@H](O)c1ccccc1 [Example 13, 6-[5-(difluoromethyl)-1,3,4-oxadiazol-2-yl]-2-[(1S,2S)-2-hydroxy-1,2-diphenylethyl]-2,3-dihydro-1H-isoindol-1-one] | 99
Cn1cc([C@H]([C@@H](O)c2ccc(F)cc2)N2Cc3ccc(-c4nnc(C(F)F)o4)cc3C2=O)cn1 (racemic) [Example 43, 6-[5-(difluoromethyl)-1,3,4-oxadiazol-2-yl]-2-[(1RS,2SR)-2-(4-fluorophenyl)-2-hydroxy-1-(1-methyl-1H-pyrazol-4-yl)ethyl]-2,3-dihydro-1H-isoindol-1-one] | 100
O=C1c2cc(-c3nnc(C(F)F)o3)ccc2CN1[C@H](c1ccccn1)[C@@H](O)c1ccc(Cl)cn1 (single isomer, unassigned) [Example 112, 2-[(1R*,2R*)-2-(5-chloropyridin-2-yl)-2-hydroxy-1-(pyridin-2-yl)ethyl]-6-[5-(difluoromethyl)-1,3,4-oxadiazol-2-yl]-2,3-dihydro-1H-isoindol-1-one] | 99
O=C1c2cc(-c3nnc(C(F)F)o3)ccc2CN1[C@H](c1cccc(F)n1)[C@@H](O)c1ccc(F)cn1 (single isomer, unassigned) [Example 126, 6-[5-(difluoromethyl)-1,3,4-oxadiazol-2-yl]-2-[(1R*,2R*)-2-(5-fluoropyridin-2-yl)-1-(6-fluoropyridin-2-yl)-2-hydroxyethyl]-2,3-dihydro-1H-isoindol-1-one] | 101
O=C1c2cc(-c3nnc(C(F)F)o3)ccc2CN1[C@H](c1ccccc1F)[C@@H](O)c1ccccc1 (racemic) [Example 27, 6-[5-(difluoromethyl)-1,3,4-oxadiazol-2-yl]-2-[(1RS,2SR)-1-(2-fluorophenyl)-2-hydroxy-2-phenylethyl]-2,3-dihydro-1H-isoindol-1-one] | 101
N#Cc1ccc([C@H]([C@@H](O)c2ccccc2)N2Cc3ccc(-c4nnc(C(F)F)o4)cc3C2=O)cc1 (racemic) [Example 41, 4-[(1RS,2SR)-1-{6-[5-(difluoromethyl)-1,3,4-oxadiazol-2-yl]-1-oxo-1,3-dihydro-2H-isoindol-2-yl}-2-hydroxy-2-phenylethyl]benzonitrile] | 100
O=C1c2cc(-c3nnc(C(F)F)o3)ccc2CN1[C@@H](c1ccccn1)[C@H](O)c1ccccn1 [Example 2, 6-[5-(difluoromethyl)-1,3,4-oxadiazol-2-yl]-2-[(1S,2S)-2-hydroxy-1,2-di(pyridin-2-yl)ethyl]-2,3-dihydro-1H-isoindol-1-one] | 100
O=C1c2cc(-c3nnc(C(F)F)o3)ccc2CN1[C@@H](c1ccc(F)cc1F)[C@@H](O)c1ccc(F)cc1 (racemic) [Example 146, 6-[5-(difluoromethyl)-1,3,4-oxadiazol-2-yl]-2-[(1SR,2SR)-1-(2,4-difluoro-phenyl)-2-(4-fluorophenyl)-2-hydroxy-ethyl]-2,3-dihydro-1H-isoindol-1-one] | 95
O=C1c2cc(-c3nnc(C(F)F)o3)ccc2CN1[C@H](c1ccccc1F)[C@@H](O)c1ccc(F)cc1 (racemic) [Example 28, 6-[5-(difluoromethyl)-1,3,4-oxadiazol-2-yl]-2-[(1RS,2SR)-1-(2-fluorophenyl)-2-(4-fluorophenyl)-2-hydroxyethyl]-2,3-dihydro-1H-isoindol-1-one] | 99
O=C1c2cc(-c3nnc(C(F)F)o3)ccc2CN1[C@H](C1CCOCC1)[C@H](O)c1ccc(F)cc1 [Example 148, 6-[5-(difluoromethyl)-1,3,4-oxadiazol-2-yl]-2-[(1R,2R)-2-(4-fluorophenyl)-2-hydroxy-1-(oxan-4-yl)ethyl]-2,3-dihydro-1H-isoindol-1-one] | 101
O=C1c2cc(-c3nnc(C(F)F)o3)ccc2CN1[C@H](c1ccccn1)[C@H](O)c1ccccc1 (racemic) [Example 143, 6-[5-(difluoromethyl)-1,3,4-oxadiazol-2-yl]-2-[(1RS,2RS)-2-hydroxy-2-phenyl-1-(pyridin-2-yl)ethyl]-2,3-dihydro-1H-isoindol-1-one] | 100
